Results as given in publication PMC7429544, “Influence of protein (human galectin-3) design on aspects of lectin activity” (Histochemistry and Cell Biology, 2020).

Key:
[1] = biological target: T1, Gal-3–Gal-3 (Homo sapiens, UniProt P17931); assay: isothermal titration calorimetry; format: binding; conditions: 25 °C, pH 7.2, 20 mM phosphate, 10 mM NaCl, 2 mM β-mercaptoethanol, one-set-of-sites model, dissolved and dialyzed
T1 construct: gene LGALS3; engineered covalent homodimer: two Gal-3 CRDs fused directly C- to N-terminus in one polypeptide, no tail; recombinant from bacteria
Source text: isothermal titration calorimetry on Gal-3–Gal-3

[2] = biological target: T2, Gal-3–8S–Gal-3 (Homo sapiens, UniProt P17931); assay: isothermal titration calorimetry; format: binding; conditions: 25 °C, pH 7.2, 20 mM phosphate, 10 mM NaCl, 2 mM β-mercaptoethanol; one-set-of-sites model; lyophilized protein
T2 construct: gene LGALS3; engineered covalent homodimer: two Gal-3 CRDs joined by the 33-residue Gal-8S linker peptide in one polypeptide, no tail; recombinant from bacteria
Source text: isothermal titration calorimetry on Gal-3–8S–Gal-3

[3] = biological target: T3, Gal-3 CRD (trGal-3) (Homo sapiens, UniProt P17931); assay: isothermal titration calorimetry; format: binding; conditions: 25 °C, pH 7.2, 20 mM phosphate, 10 mM NaCl, 2 mM β-mercaptoethanol; one-set-of-sites model; lyophilized protein
T3 construct: gene LGALS3; C-terminal carbohydrate recognition domain only, N-terminal tail proteolytically removed; recombinant from bacteria
Source text: isothermal titration calorimetry on Gal-3 CRD (trGal-3)

[4] = biological target: T4, Gal-3 (full-length wild-type human galectin-3) (Homo sapiens, UniProt P17931); assay: isothermal titration calorimetry; format: binding; conditions: 25 °C, pH 7.2, 20 mM phosphate, 10 mM NaCl, 2 mM β-mercaptoethanol; one-set-of-sites model; lyophilized protein
T4 construct: gene LGALS3; full-length with N-terminal tail (two Ser phosphorylation sites, nine collagen-like repeats) and CRD; monomeric in solution; biotinylated for tissue sections
Source text: isothermal titration calorimetry on Gal-3 (full-length wild-type human galectin-3)

[5] = biological target: T5, Gal-1–8S–Gal-3; assay: isothermal titration calorimetry; format: binding, Homo sapiens; conditions: 25 °C, pH 7.2, 20 mM phosphate, 10 mM NaCl, 2 mM β-mercaptoethanol; one-set-of-sites model; lyophilized protein (first of two preparations)
T5 construct: gene LGALS1; engineered heterodimer in one polypeptide: N-terminal Gal-1 CRD, 33-residue Gal-8S linker, Gal-3 CRD; recombinant from bacteria
Source text: isothermal titration calorimetry on Gal-1–8S–Gal-3

[6] = biological target: T6, Gal-1–Gal-3; assay: isothermal titration calorimetry; format: binding, Homo sapiens; conditions: 25 °C, pH 7.2, 20 mM phosphate, 10 mM NaCl, 2 mM β-mercaptoethanol; one-set-of-sites model; protein precipitated, dissolved and dialyzed
T6 construct: gene LGALS1; engineered heterodimer in one polypeptide: N-terminal Gal-1 CRD fused directly to Gal-3 CRD; recombinant from bacteria
Source text: isothermal titration calorimetry on Gal-1–Gal-3

[7] = biological target: T7, Gal-3–Gal-1; assay: isothermal titration calorimetry; format: binding, Homo sapiens; conditions: 25 °C, pH 7.2, 20 mM phosphate, 10 mM NaCl, 2 mM β-mercaptoethanol; one-set-of-sites model; protein precipitated, dissolved and dialyzed
T7 construct: gene LGALS3; engineered heterodimer in one polypeptide: N-terminal Gal-3 CRD fused directly to Gal-1 CRD; recombinant from bacteria
Source text: isothermal titration calorimetry on Gal-3–Gal-1

[8] = biological target: T8, Gal-3–8S–Gal-1; assay: isothermal titration calorimetry; format: binding, Homo sapiens; conditions: 25 °C, pH 7.2, 20 mM phosphate, 10 mM NaCl, 2 mM β-mercaptoethanol; one-set-of-sites model; lyophilized protein (first of two preparations)
T8 construct: gene LGALS3; engineered heterodimer in one polypeptide: N-terminal Gal-3 CRD, 33-residue Gal-8S linker, Gal-1 CRD; recombinant from bacteria
Source text: isothermal titration calorimetry on Gal-3–8S–Gal-1

[9] = biological target: T4, Gal-3 (full-length wild-type human galectin-3); assay: inhibition of biotinylated lectin staining, fixed murine jejunum sections; conditions: 0.5 mM Lac as part of glycocluster; labelled lectin 4 µg/mL
[10] = biological target: T1, Gal-3–Gal-3; assay: as above; conditions: 0.5 mM Lac as part of glycocluster; labelled lectin 0.25 µg/mL

T4 sequence (P17931 2-250): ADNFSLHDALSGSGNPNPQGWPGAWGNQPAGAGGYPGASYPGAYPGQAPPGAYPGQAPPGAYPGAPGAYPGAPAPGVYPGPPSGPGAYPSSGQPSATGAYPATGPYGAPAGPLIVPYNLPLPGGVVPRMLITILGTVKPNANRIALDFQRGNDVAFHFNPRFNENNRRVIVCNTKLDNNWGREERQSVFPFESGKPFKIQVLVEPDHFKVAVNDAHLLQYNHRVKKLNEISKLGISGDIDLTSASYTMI
T1 sequence (P17931 114-250 limits assumed): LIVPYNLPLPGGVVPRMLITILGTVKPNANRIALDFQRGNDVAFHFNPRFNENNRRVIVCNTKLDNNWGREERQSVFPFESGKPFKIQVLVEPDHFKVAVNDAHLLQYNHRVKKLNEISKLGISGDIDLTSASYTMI
T3 sequence (P17931 114-250 limits assumed): as above
T2 sequence (P17931 114-250 limits assumed): as above

Row | Kd ([1]; protein precipitated) | Kd [2] | Kd [3] | Kd [4] | Kd ([1]; protein precipitated with ammonium sulfate) | Kd [5] | Kd [6] | Kd [7] | Kd [8] | Compound | staining inhibition [9] | staining inhibition [10]
1 | 288 ± 3.01 µM | 157 ± 4.69 µM | 264 ± 13.7 µM | 222 ± 18.5 µM | – | – | – | – | – | CC(=O)N[C@H]1C(O)O[C@H](CO)[C@H](O)[C@@H]1O[C@@H]1O[C@H](CO)[C@H](O)[C@H](O)[C@H]1O (some centres unmarked) [Galβ1,3GalNAc] | – | –
2 | – | 29.4 ± 0.92 µM | 45.6 ± 1.64 µM | 37.5 ± 0.48 µM | 36.2 ± 0.78 µM | 48 ± 1.71 µM | 59 ± 1.45 µM | 49.7 ± 0.95 µM | 60 ± 1.1 µM | CC(=O)N[C@H]1C(O)O[C@H](CO)[C@@H](O[C@@H]2O[C@H](CO)[C@H](O)[C@H](O)[C@H]2O)[C@@H]1O (some centres unmarked) [LacNAc] | – | –
3 | – | – | – | – | – | – | – | – | – | OC[C@H]1O[C@@H](O[C@H]2[C@H](O)[C@@H](O)[C@H](n3cc(COc4ccc(C(=C(c5ccc(OCc6cn([C@@H]7O[C@H](CO)[C@@H](O[C@@H]8O[C@H](CO)[C@H](O)[C@H](O)[C@H]8O)[C@H](O)[C@H]7O)nn6)cc5)c5ccc(OCc6cn([C@@H]7O[C@H](CO)[C@@H](O[C@@H]8O[C@H](CO)[C@H](O)[C@H](O)[C@H]8O)[C@H](O)[C@H]7O)nn6)cc5)c5ccc(OCc6cn([C@@H]7O[C@H](CO)[C@@H](O[C@@H]8O[C@H](CO)[C@H](O)[C@H](O)[C@H]8O)[C@H](O)[C@H]7O)nn6)cc5)cc4)nn3)O[C@@H]2CO)[C@H](O)[C@@H](O)[C@H]1O [compound 2] | Signal for binding of Gal-3 was strongly reduced in cells of the villi | extent of binding of the Gal-3–Gal-3 homodimer was less potently reduced
